Measured values taken from patent US20240293551A1, “USE OF ST-TYPE LIPID COMPOUNDS IN PREPARATION OF NUCLEIC ACID DELIVERY REAGENT AND RELATED PRODUCT” (INSTITUTE OF BASIC MEDICAL SCIENCES CHINESE ACADEMY OF …, priority 2021, published 2024).

Test system: PGY-sRNA-26
Experiment: In vivo delivery study of lipid-nucleic acid mixture (oral gavage, RT-qPCR of PGY-sRNA-26 in tissues)
Design: species or system mouse
Conditions: C57BL/6 mice, gavage, 100 μg lipid: 10 nmol PGY-sRNA-26, 12 hours; for oral delivery of single-stranded sRNA nucleic acids into mouse intestinal tissue: intestine; for delivery efficacy over each tissue and blood tested (broad-spectrum delivery): all tissues and blood tested
Summary of the method: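 C57BL/6 male mice (~6 weeks, 20-24 g), fasted 12 h, were gavaged with 10 nmol 3′-methylated PGY-sRNA-26 mixed with 100 μg lipid (heated 90° C. 15 min), versus saline or free sRNA (n=4 each). After 12 h, blood and tissues were Trizol-extracted; sRNA quantified by stem-loop RT-qPCR relative to U6.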

| Structure (SMILES) | oral delivery of single-stranded sRNA nucleic acids into mouse blood | oral delivery of single-stranded sRNA nucleic acids into mouse brain tissue | oral delivery of single-stranded sRNA nucleic acids into mouse femur | oral delivery of single-stranded sRNA nucleic acids into mouse heart tissue | oral delivery of single-stranded sRNA nucleic acids into mouse intestinal tissue | oral delivery of single-stranded sRNA nucleic acids into mouse liver tissue | oral delivery of single-stranded sRNA nucleic acids into mouse lung tissue | oral delivery of single-stranded sRNA nucleic acids into mouse spleen tissue | oral delivery of single-stranded sRNA nucleic acids into mouse stomach tissue | oral delivery of single-stranded sRNA nucleic acids into mouse kidney tissue | delivery efficacy over each tissue and blood tested (broad-spectrum delivery) |
| --- | --- | --- | --- | --- | --- | --- | --- | --- | --- | --- | --- |
| CCCCCCCCCCCCCCCCCC(=O)O[C@H]1CC[C@@]2(C)C(=CC[C@H]3[C@@H]4CC[C@H]([C@H](C)CCCC(C)C)[C@@]4(C)CC[C@@H]32)C1 [Lipid 584] | can effectively orally deliver | can effectively orally deliver | can effectively orally deliver | can effectively orally deliver | can effectively orally deliver | can effectively orally deliver | can effectively orally deliver | can effectively orally deliver | can effectively orally deliver | – | – |
| CC(=O)OCC(=O)[C@@]1(O)CC[C@H]2[C@@H]3CCC4=CC(=O)CC[C@]4(C)[C@H]3C(=O)C[C@@]21C [Lipid 585] | can effectively orally deliver | can effectively orally deliver | can effectively orally deliver | can effectively orally deliver | can effectively orally deliver | can effectively orally deliver | can effectively orally deliver | can effectively orally deliver | can effectively orally deliver | can effectively orally deliver | – |
| C[C@H](CCC(=O)O)[C@H]1CC[C@H]2[C@@H]3C(=O)C[C@@H]4C[C@H](O)CC[C@]4(C)[C@H]3CC[C@]12C [Lipid 586] | can effectively orally deliver | can effectively orally deliver | can effectively orally deliver | can effectively orally deliver | can effectively orally deliver | can effectively orally deliver | – | can effectively orally deliver | can effectively orally deliver | can effectively orally deliver | – |
| C[C@]12CCC(=O)C=C1CC[C@@H]1[C@@H]2CC[C@]2(C)C(=O)CC[C@@H]12 [Lipid 587] | can effectively orally deliver | can effectively orally deliver | – | can effectively orally deliver | – | – | – | can effectively orally deliver | can effectively orally deliver | can effectively orally deliver | – |
| C[C@@H]1CC[C@@]2(OC1)O[C@H]1C[C@H]3[C@@H]4CC=C5C[C@@H](O)CC[C@]5(C)[C@H]4CC[C@]3(C)[C@H]1[C@@H]2C [Lipid 589] | can effectively orally deliver | can effectively orally deliver | can effectively orally deliver | can effectively orally deliver | can effectively orally deliver | can effectively orally deliver | can effectively orally deliver | can effectively orally deliver | can effectively orally deliver | can effectively orally deliver | exhibited the best delivery efficacy |
| CC(=O)[C@H]1CC[C@H]2[C@@H]3CC=C4C[C@@H](O)CC[C@]4(C)[C@H]3CC[C@]12C [Lipid 590] | can effectively orally deliver | can effectively orally deliver | can effectively orally deliver | can effectively orally deliver | can effectively orally deliver | can effectively orally deliver | can effectively orally deliver | can effectively orally deliver | can effectively orally deliver | can effectively orally deliver | exhibited the best delivery efficacy |
| C#C[C@]1(O)CC[C@H]2[C@@H]3CCc4cc(O)ccc4[C@H]3CC[C@@]21C [Lipid 591] | – | can effectively orally deliver | can effectively orally deliver | can effectively orally deliver | can effectively orally deliver | – | can effectively orally deliver | can effectively orally deliver | can effectively orally deliver | can effectively orally deliver | – |
| C[C@H](CCC(=O)O)[C@H]1CC[C@H]2[C@@H]3[C@@H](O)C[C@@H]4C[C@H](O)CC[C@]4(C)[C@H]3CC[C@]12C [Lipid 592] | can effectively orally deliver | can effectively orally deliver | can effectively orally deliver | can effectively orally deliver | can effectively orally deliver | can effectively orally deliver | can effectively orally deliver | can effectively orally deliver | can effectively orally deliver | can effectively orally deliver | exhibited the best delivery efficacy |
| C[C@]12CC[C@@H]3c4ccc(O)cc4CC[C@H]3[C@@H]1C[C@@H](O)[C@@H]2O [Lipid 633] | can effectively orally deliver | can effectively orally deliver | can effectively orally deliver | can effectively orally deliver | can effectively orally deliver | can effectively orally deliver | can effectively orally deliver | can effectively orally deliver | can effectively orally deliver | can effectively orally deliver | exhibited the best delivery efficacy |
